Several values for one entry are separate records, joined by “and”; a condition that tells them apart may be missing. Equal values may be shown once. Read-outs that look alike come from different tables or passages of the source.
How the values were obtained:
[1] = tested on: HepG2 hepatocellular carcinoma cells; experiment: LDH cytotoxicity assay, HepG2; assay type: cell-based; settings: Homo sapiens, LDH test, read-out: Cytotoxic activity expressed as IC50
Procedure: (§1) The cytotoxic activity was tested on human cancer and normal cell lines, grouped in several panels: skin (malignant melanoma HTB-140, malignant melanoma A375, melanoma WM793, and normal keratinocytes HaCaT), prostate (prostate carcinoma DU-145, prostate carcinoma PC3, and prostate epithelial cells PNT2), thyroid (thyroid carcinoma FTC133, thyroid carcinoma, undifferentiated 8505C), gastrointestinal panel (hepatocellular carcinoma HepG2, colon adenocarcinoma Caco-2, and colon adenocarcinoma HT29), and single line of lung carcinoma A549. Cells were grown at standard conditions (37 °C, 5% CO2, relative humidity) and culture media (DMEM/F12 for PNT2, WM793, HT29, A549; DMEM Low Glucose for DU-145; DMEM High Glucose for A375, HaCaT, A549; MEM with NEAA for Caco-2), supplemented with 10% fetal bovine serum (FBS) and 1% antibiotic solution (10,000 U penicillin and 10 mg streptomycin/mL). All cell lines, cell culture media, and supplements were from Merck (Seelze, Germany).
(§2) Before the experiment, cells were seeded onto 96-well plates for 24 h, at a density of 1.5 × 10^4 cells/ well. Then the tested compounds (5–100 μg/mL) were added and incubated for 24 and 48 h. Cell viability was measured with the lactate dehydrogenase (LDH) assay by Clontech (Clontech, Mountain View, CA, USA), as described previously. The absorbance was measured at 490 nm using a Biotek Synergy microplate reader (BioTek Instruments Inc., Winooski, VT, USA). Cell viability was expressed as a percentage of dead cells. Each experiment was conducted in triplicate. Doxorubicin was used as a reference cytostatic.
(§3) The results were expressed as mean (±SD). Data were analyzed using Statistica v.13.3 (StatSoft, Tulsa, OK, USA). The IC50 values were calculated using OriginPro 2020b (64-bit) 9.7.5.184 (Academic) (OriginLab Corporation, Northampton, MA, USA). One-way analysis of variance (ANOVA) and the post-hoc Tukey multiple comparison test were used. The statistical significance was defined at the probability level of p < 0.05. Principal component analysis (PCA) and hierarchical cluster analysis (HCA) were performed using Statistica v.13.3 (StatSoft, Tulsa, OK, USA). Prior to PCA, the Bartlett’s sphericity test was conducted, and the Kaiser-Meyer-Olkin Measure of Sampling Adequacy index (KMO) was examined. In the simple model, for each compound tested (1–4), the cell lines were the cases, and the different concentrations of the compound were the parameters. This was followed by a PCA model in which the cell lines were the parameters, and the compounds (at different concentrations) were the cases. All PCA models were based on a correlation matrix. Hierarchical cluster analysis (CA) based on standardized data was performed using Ward’s method and Euclidean distance. The results were grouped based on Mojena’s rule.

[2] = tested on: WM793 primary melanoma cells; experiment: LDH cytotoxicity assay, WM793; assay type: cell-based; settings: Homo sapiens, LDH test, read-out: Cytotoxic activity expressed as IC50
Procedure: as §1, §2, §3

[3] = tested on: A549 lung carcinoma cells; experiment: LDH cytotoxicity assay, A549; assay type: cell-based, human; settings: Homo sapiens, LDH test, read-out: Cytotoxic activity expressed as IC50
Procedure: as §1, §2, §3

[4] = tested on: HTB-140 malignant melanoma cells; experiment: LDH cytotoxicity assay, HTB-140; assay type: cell-based; settings: Homo sapiens, LDH test, read-out: Cytotoxic activity expressed as IC50
Procedure: as §1, §2, §3

[5] = LDH cytotoxicity assay, HaCaT; assay type: cell-based, human; settings: human, HaCaT normal keratinocytes, HaCaT normal cells, LDH test, read-out: Cytotoxic activity expressed as IC50; for IC50 at 24 h: 24 h incubation; for IC50 at 48 h: 48 h incubation
Procedure: as §1, §2, §3

[6] = tested on: DU-145 metastatic prostate carcinoma cells; experiment: LDH cytotoxicity assay, DU-145; assay type: cell-based, human; settings: Homo sapiens, LDH test, read-out: Cytotoxic activity expressed as IC50
Procedure: as §1, §2, §3

[7] = tested on: 8505C undifferentiated thyroid carcinoma cells; experiment: LDH cytotoxicity assay, 8505C; assay type: cell-based; settings: Homo sapiens, LDH test, read-out: Cytotoxic activity expressed as IC50
Procedure: as §1, §2, §3

[8] = tested on: PC3 metastatic prostate carcinoma cells; experiment: LDH cytotoxicity assay, PC3; assay type: cell-based; settings: Homo sapiens, LDH test, read-out: Cytotoxic activity expressed as IC50
Procedure: as §1, §2, §3

[9] = tested on: A375 malignant melanoma cells; experiment: LDH cytotoxicity assay, A375; assay type: cell-based; settings: Homo sapiens, A-375, LDH test, read-out: Cytotoxic activity expressed as IC50
Procedure: as §1, §2, §3

[10] = tested on: Caco-2 colon adenocarcinoma cells; experiment: LDH cytotoxicity assay, Caco-2; assay type: cell-based; settings: Homo sapiens, LDH test, read-out: Cytotoxic activity expressed as IC50
Procedure: as §1, §2, §3

[11] = tested on: HT29 colon adenocarcinoma cells; experiment: LDH cytotoxicity assay, HT29; assay type: cell-based; settings: Homo sapiens, HT-29, LDH test, read-out: Cytotoxic activity expressed as IC50
Procedure: as §1, §2, §3

[12] = tested on: FTC133 follicular thyroid carcinoma cells; experiment: LDH cytotoxicity assay, FTC133; assay type: cell-based; settings: Homo sapiens, FTC-133, LDH test, read-out: Cytotoxic activity expressed as IC50
Procedure: as §1, §2, §3

[13] = LDH cytotoxicity assay, PNT2; assay type: cell-based, human; settings: human, PNT2 prostate epithelial cells (normal), PNT2 normal cells, LDH test, read-out: Cytotoxic activity expressed as IC50; for IC50 at 24 h: 24 h incubation; for IC50 at 48 h: 48 h incubation
Procedure: as §1, §2, §3

[14] = tested on: human cancer and normal cell lines; experiment: Cytotoxicity screening across the whole cell line panel; assay type: cell-based; settings: all cell lines tested, 5–100 μg/mL, 24 and 48 h
Procedure: The cytotoxic activity was tested on human cancer and normal cell lines, grouped in several panels: skin (malignant melanoma HTB-140, malignant melanoma A375, melanoma WM793, and normal keratinocytes HaCaT), prostate (prostate carcinoma DU-145, prostate carcinoma PC3, and prostate epithelial cells PNT2), thyroid (thyroid carcinoma FTC133, thyroid carcinoma, undifferentiated 8505C), gastrointestinal panel (hepatocellular carcinoma HepG2, colon adenocarcinoma Caco-2, and colon adenocarcinoma HT29), and single line of lung carcinoma A549. […]
as §2, with “Then the tested compounds (5–100 μg/mL) were added and incubated for 24 and 48 h.” left out, “Each experiment was conducted in triplicate. Doxorubicin was used as a reference cytostatic.” left out
The results were expressed as mean (±SD). Data were analyzed using Statistica v.13.3 (StatSoft, Tulsa, OK, USA). The IC50 values were calculated using OriginPro 2020b (64-bit) 9.7.5.184 (Academic) (OriginLab Corporation, Northampton, MA, USA). […]

[15] = A549, 24 h, A549, 24 h incubation
[16] = A549, 48 h, A549, 48 h incubation

Row | Compound | IC50 ([1]; HepG2, 24 h incubation) | IC50 ([1]; HepG2, 48 h incubation) | IC50 ([2]; WM793, 24 h incubation) | IC50 ([2]; WM793, 48 h incubation) | IC50 [3, 15] | IC50 [3, 16] | IC50 ([4]; HTB-140, 24 h incubation) | IC50 ([4]; HTB-140, 48 h incubation) | IC50 at 24 h [5] | IC50 at 48 h [5] | IC50 ([6]; DU-145, 24 h incubation) | IC50 ([6]; DU-145, 48 h incubation) | IC50 ([7]; 24 h incubation) | IC50 ([7]; 48 h incubation) | IC50 ([8]; PC3, 24 h incubation) | IC50 ([9]; A375, 24 h incubation) | IC50 ([10]; Caco-2, 24 h incubation) | IC50 ([11]; HT29, 24 h incubation) | IC50 ([12]; FTC133, 24 h incubation) | IC50 at 24 h [13] | also measured
1 | CC1(C)CC[C@]2(C(=O)O[C@@H]3O[C@H](CO)[C@@H](O)[C@H](O)[C@H]3O)CC[C@]3(C)C(=CC[C@@H]4[C@@]5(C)CC[C@H](O)[C@@](C)(CO)[C@@H]5CC[C@]43C)[C@@H]2C1 [Compound 3, 28-O-β-D-glucopyranosyl hederagenin ester] | 127 µM and 80.5 µg/mL | 107 µM and 68 µg/mL | > 100 µg/mL | > 100 µg/mL | 150 µM and 95.3 µg/mL | 73.2 µM and 46.5 µg/mL | > 100 µg/mL | 155 µM and 98.2 µg/mL | 91.5 µM and 58.1 µg/mL | 68.2 µM and 43.3 µg/mL | 56.8 µM and 36.1 µg/mL | 42.6 µM and 27 µg/mL | > 100 µg/mL | > 100 µg/mL | > 100 µg/mL | 73.5 µM and 46.7 µg/mL | 42.6 µM and 27 µg/mL | 69.2 µM and 44 µg/mL | > 100 µg/mL | 84.8 µM and 53.8 µg/mL | IC50 ([8]; PC3, 48 h incubation): 118 µM and 74.8 µg/mL; IC50 ([9]; A375, 48 h incubation): 58 µM and 36.8 µg/mL; IC50 ([10]; Caco-2, 48 h incubation): 38 µM and 24.2 µg/mL; IC50 ([11]; HT29, 48 h incubation): 60 µM and 38.1 µg/mL; IC50 ([12]; FTC133, 48 h incubation): > 100 µg/mL; IC50 at 48 h [13]: 59.5 µM and 37.8 µg/mL
2 | CC1(C)CC[C@]2(C(=O)O)CC[C@]3(C)C(=CC[C@@H]4[C@@]5(C)CC[C@H](O)[C@@](C)(CO)[C@@H]5CC[C@]43C)[C@@H]2C1 [Compound 4, hederagenin] | > 100 µg/mL | > 100 µg/mL | > 100 µg/mL | > 100 µg/mL | > 100 µg/mL | 208 µM and 98.2 µg/mL | > 100 µg/mL | > 100 µg/mL | > 100 µg/mL | > 100 µg/mL | 109 µM and 51.5 µg/mL | 42.9 µM and 20.3 µg/mL | > 100 µg/mL | > 100 µg/mL | > 100 µg/mL | > 100 µg/mL | 191 µM and 90.1 µg/mL | > 100 µg/mL | > 100 µg/mL | 195 µM and 92 µg/mL | IC50 ([8]; PC3, 48 h incubation): 164 µM and 77.7 µg/mL; IC50 ([9]; A375, 48 h incubation): > 100 µg/mL; IC50 ([10]; Caco-2, 48 h incubation): 158 µM and 74.9 µg/mL; IC50 ([11]; HT29, 48 h incubation): 191 µM and 90.3 µg/mL; IC50 ([12]; FTC133, 48 h incubation): > 100 µg/mL; IC50 at 48 h [13]: 159 µM and 75.1 µg/mL
3 | CC1(C)CC[C@]2(C(=O)O)CC[C@]3(C)C(=CC[C@@H]4[C@@]5(C)CC[C@H](O[C@@H]6O[C@H](CO)[C@@H](O)[C@H](O[C@@H]7O[C@H](CO)[C@@H](O)[C@H](O)[C@H]7O)[C@H]6O)[C@@](C)(CO)[C@@H]5CC[C@]43C)[C@@H]2C1 [Compound 1] | 16.6 µM and 13.2 µg/mL | 13.6 µM and 10.8 µg/mL | 34.6 µM and 27.6 µg/mL | 21.6 µM and 17.2 µg/mL | 18.7 µM and 14.9 µg/mL | 14.8 µM and 11.8 µg/mL | 33 µM and 26.2 µg/mL | 22.8 µM and 18.2 µg/mL | 50.8 µM and 40.4 µg/mL | 33.9 µM and 27 µg/mL | 20.7 µM and 16.5 µg/mL | 14.7 µM and 11.7 µg/mL | 45.1 µM and 35.9 µg/mL | 32.4 µM and 25.8 µg/mL | 73.6 µM and 58.6 µg/mL | 22.6 µM and 18 µg/mL | 27.1 µM and 21.6 µg/mL | 35.7 µM and 28.4 µg/mL | 30.8 µM and 24.5 µg/mL | 51.1 µM and 40.7 µg/mL | Overall cytotoxic activity across the panel, in words [14]: exhibited activity against all cell lines tested; IC50 ([8]; PC3, 48 h incubation): 44.2 µM and 35.2 µg/mL; IC50 ([9]; A375, 48 h incubation): 16 µM and 12.7 µg/mL; IC50 ([10]; Caco-2, 48 h incubation): 24.2 µM and 19.3 µg/mL; IC50 ([11]; HT29, 48 h incubation): 31.4 µM and 25 µg/mL; IC50 ([12]; FTC133, 48 h incubation): 17.1 µM and 13.6 µg/mL; IC50 at 48 h [13]: 42.8 µM and 34.1 µg/mL
4 | COc1cccc2c1C(=O)c1c(O)c3c(c(O)c1C2=O)C[C@@](O)(C(=O)CO)C[C@@H]3O[C@H]1C[C@H](N)[C@H](O)[C@H](C)O1 [DOX, doxorubicin] | 2.05 µM and 1.11 µg/mL |  | > 40 µg/mL |  | 2.01 µM and 1.09 µg/mL |  | 9.03 µM and 4.91 µg/mL |  | 7.75 µM and 4.21 µg/mL |  | 4.53 µM and 2.46 µg/mL |  | > 40 µg/mL |  | > 40 µg/mL | 790 nM and 0.43 µg/mL | 5.43 µM and 2.95 µg/mL | 2.06 µM and 1.12 µg/mL | 8.56 µM and 4.65 µg/mL | 2.01 µM and 1.09 µg/mL | 

Source: publication PMC12348107, “Saponins from Oxybasis rubra (L.) S.Fuentes, Uotila & Borsh: Comparative Assessment of Cytotoxic Potential Against a Wide Panel of Cancer Cell Lines” (Molecules, 2025)
